Reference: US20120004307A1, “ORAL TREATMENT OF DIGITAL ISCHEMIC LESIONS” (priority 2010, published 2012)
Like-named read-outs stand apart in the source and are kept apart here.

Tests used:
[1] = for subjects who tolerated the dose: 10 SSc patients
Description: During a phase I PK trial of oral treprostinil in SSc patients, the goal was to quantify changes in perfusion as assessed by laser Doppler imaging (LDI) and to determine whether improvements in perfusion correlated with drug concentration.
10 SSc patients with recent or active DU participated in the study.
Dosing: Oral treprostinil titrated up to 4 mg twice daily (BID) as tolerated over 6-8 weeks. Pharmokinetics (PK) and laser Doppler imaging (LDI) assessments: performed when subjects achieved the 2 mg and 4 mg (or maximally tolerated dose) doses. […] 8 serial measures of digital perfusion and drug concentration were obtained over 12 hours at each of the 2 study visits.
Repeated measures analyses were performed using random effects model. Dependent variables were perfusion and skin temperature. The predictor of interest was log-transformed drug concentration. Covariates with p-values less than 0.15 were kept in the model. All data was used, across time points, visits, and hands.

[2] = DISTOL-1 randomized Phase IIB study of oral treprostinil diethanolamine versus placebo, digital ulcers in systemic sclerosis; format: in vivo, human
Description: Primary: To assess the effect of oral treprostinil in reducing net ulcer burden compared to placebo in patients with systemic sclerosis (SSc) as measured by the change in net ulcer burden from Baseline to Follow-up between treatment groups at 20 weeks. […] Target enrollment of […] patients to complete 128 subjects. […] Primary analysis: effect of treprostinil versus placebo on change in net ulcer burden at Week 20 evaluated using non-parametric analysis of covariance within the framework of the extended Cochran-Mantel-Haenszel test.

[3] = 4 mg visit (but not the 2 mg visit), adjusted for time points of Doppler assessment
[4] = Subject 6, 4 mg visit, baseline at drug trough prior to administration of 4 mg dose
[5] = Subject 6, 4 mg visit, twelve hours after dosing

Which results are given for CCCCC[C@H](O)CC[C@@H]1[C@H]2Cc3cccc(OCC(=O)O)c3C[C@H]2C[C@H]1O.OCCNCCO [treprostinil diethanolamine, Treprostinil diethanolamine]?
subjects who tolerated the dose ([1]; 2 mg BID by the first PK visit): Nine; subjects who tolerated the dose ([1]; 4 mg BID by the 2nd PK visit): 6 subjects; association of digital skin temperature with log-transformed plasma concentration [1, 3]: positively associated; association of perfusion with log-transformed plasma concentration [1, 3]: positively associated; perfusion versus drug exposure ([1]; AUCs, FIG. 4): increase in perfusion was observed with an increase in drug exposure; plasma concentration versus dose ([1]; AUCs, FIG. 4): increase in plasma concentration was observed with an increase in dose; mean perfusion (laser Doppler imaging) [1, 4]: 89.3 units; skin temperature [1, 4]: 25 °C; perfusion (laser Doppler imaging) [1, 5]: 298.3 units; skin temperature [1, 5]: 32 °C; adverse effects ([1]; titrated up to 4 mg BID over 6-8 weeks): transient and typical of prostacyclin therapy; change in net ulcer burden at Week 20 ([2]; ACA negative subset of patients): statistically significant changes were observed; Time to Cardinal Ulcer Healing (mean days) ([2]; Active n = 71): 76.3 ± 35 days; Time to all Ulcers Healed (mean days) ([2]; Active n = 71): 90.2 ± 35.6 days; Mean # of new ulcers ([2]; Active n = 71, listed under new ulcers formed after Week 5): 0.9; All Ulcers Healed ([2]; Active n = 71, number (%)): 35 (49%); Any new ulcers formed after Week 5? At least one new ([2]; Active n = 71, number (%)): 27 (38%); Any new ulcers formed after Week 5? No new ([2]; Active n = 71, number (%)): 30 (42%); Any new ulcers formed during study? At least one new ([2]; Active n = 71, number (%)): 39 (55%); Any new ulcers formed during study? No new ([2]; Active n = 71, number (%)): 24 (34%); Cardinal Ulcer Healed ([2]; Active n = 71, number (%)): 44 (62%); Discontinuations: Adverse Event ([2]; Active n = 72, number (%) of subjects): 9 (13%); Mean Change in Net Ulcer Burden Week 20 P value ([2]; Subgroup (ACA) Negative (n = 40/34)): 0.01; Mean Change in Net Ulcer Burden Week 20 P value ([2]; Subgroup (ACA) Positive (n = 19/29)): 0.97; Mean Change in Net Ulcer Burden Week 20 P value ([2]; Subgroup (ATA) Negative (n = 32/38)): 0.58; Mean Change in Net Ulcer Burden Week 20 P value ([2]; Subgroup (ATA) Positive (n = 27/22)): 0.06; Mean Change in Net Ulcer Burden Week 20 P value ([2]; Subgroup >2 active ulcers at Baseline (n = 10/10)): 0.51; Mean Change in Net Ulcer Burden Week 20 P value ([2]; Subgroup ACA Negative/ATA Positive (n = 20/15)): 0.013; Mean Change in Net Ulcer Burden Week 20 P value ([2]; Subgroup Diffuse SSc (n = 31/21)): 0.32; Mean Change in Net Ulcer Burden Week 20 P value ([2]; Subgroup Limited SSc (n = 42/55 Active/Placebo)): 0.42; Mean Change in Net Ulcer Burden Week 20 P value ([2]; Subgroup No PDEI background (n = 59/63)): 0.21; Mean Change in Net Ulcer Burden Week 20 P value ([2]; Subgroup PDEI background (n = 12/13)): 0.90; Mean Change in Net Ulcer Burden Week 20 P value ([2]; Subgroup ≦2 active ulcers at Baseline (n = 61/66)): 0.10; Patient Global and Digital Ulcer pain VAS ([2]; Week 20): Improvement not reaching statistical significance; symptomatic relief of pain and functional deficits associated with ischemic vascular disease ([2]; patients with scleroderma and digital ulcers, orally administered): provided symptomatic relief of pain; change in net ulcer burden at Week 20, primary analysis ([2]; total population, versus placebo): did not achieve statistical significance
